Here are results for two compounds from patent US8685724B2, “In vitro techniques for use with stem cells” (Kwalata Trading Limited, priority 2004, dated 2014).

Test [1] concerns first-pass cells. Description: Enrichment of EPCs from first-pass cells on plasma-coated flasks in the presence of progesterone, flow-cytometry staining. The format is cell-based, human. The conditions noted are these: 0.02-2 microgram/ml progesterone, 5-20% autologous serum, VEGF, Heparin, 3 experiments. As to the method:
Coating T-75 Flasks with Autologous Plasma Example 2 for High % Serum Medium Culturing Collection of Cells for FACS Staining FACS Staining In a set of separate experiments, enrichment of EPCs from first-pass cells was evaluated following in-vitro growth on autologous plasma-coated T-75 Flasks in the presence of medium containing autologous serum, VEGF, progesterone and Heparin. These experiments were conducted with human blood, using the protocol described hereinabove. […] FACS staining results of cells cultured in media containing 5-20% autologous serum (typically 10%), 1, 2, 10, or 20 ng/ml VEGF, 0.02-2 microgram/ml progesterone and 5-25 IU/ml Heparin are summarized. The following surface markers were analyzed: CD45 (a pan-lymphocyte marker), the stem/progenitor cell markers CD34 and CD117, and the EPC/endothelial cell markers CD133 and KDR (VEGF-R).

Test [2] relates to first-pass cells. Put plainly: Enrichment of EPCs from first-pass cells on plasma-coated flasks in the presence of 17-β-estradiol, flow-cytometry staining. In kind it is cell-based, human. Conditions: 0.002-2 microgram/ml 17-β-Estradiol, 5-20% autologous serum, VEGF, Heparin, 3 experiments. On the procedure:
Coating T-75 Flasks with Autologous Plasma Example 3 for High % Serum Medium Culturing Collection of Cells for FACS Staining FACS Staining In a set of separate experiments, enrichment of EPCs from first-pass cells was evaluated following in-vitro growth on autologous plasma-coated T-75 Flasks in the presence of medium containing autologous serum, VEGF, 17-beta-estradiol and Heparin. These were experiments conducted with human blood, using the protocol described hereinabove. […] FACS staining results of cells cultured in media containing 5-20% autologous serum (typically 10%), 1, 2, 10, or 20 ng/ml VEGF, 0.002-2 microgram/ml 17-β-Estradiol and 5-25 IU/ml Heparin are summarized. The following surface markers were analyzed: CD45 (a pan-lymphocyte marker), the stem/progenitor cell markers CD34 and CD117, and the EPC/endothelial cell markers CD133, and KDR (VEGF-R).

Consider `CC(=O)[C@H]1CC[C@H]2[C@@H]3CCC4=CC(=O)CC[C@]4(C)[C@H]3CC[C@]12C` [progesterone], for which, in test [1], the “CD34 AVG percentage staining” value is given as 21.22%, the “CD45 AVG percentage staining” value is given as 94.82%, the “CD117 AVG percentage staining” value is on record as 5.54% and the “CD133 AVG percentage staining” value came out at 5.72%. In test [1], the “KDR AVG percentage staining” value turned out to be 1.05%.

On to `C[C@]12CC[C@@H]3c4ccc(O)cc4CC[C@H]3[C@@H]1CC[C@@H]2O` [17-β-estradiol], for which, in test [2], the “CD34 average percentage staining” value is given as 4.12%, the “CD45 average percentage staining” value turned out to be 96.14%, the “CD117 average percentage staining” value stood at 1.41% and the “CD133 average percentage staining” value was determined as 1.77%. Moreover, the “KDR average percentage staining” value in test [2] turned out to be 0.28%.
